Measurements as given in ChEMBL document CHEMBL4371023, “Synthesis of new betulinic acid/betulin-derived dimers and hybrids with potent antimalarial and antiviral activities” (Bioorg Med Chem, 2019).

Assays:
Human betaherpesvirus 5 [1] = test: Antiviral activity against recombinant HCMV AD169 expressing GFP infected in human foreskin fibroblasts measured after 7 days by GFP-based multi-round replication assay; format: functional, organism-based; details: Human betaherpesvirus 5, strain AD169, 168 h
Plasmodium falciparum [2] = test: Antimalarial activity against ring stage Plasmodium falciparum 3D7 infected in type A-positive human erythrocytes after 72 hrs by SYBR green 1 dye-based fluorescence assay; format: functional, organism-based; details: 3D7, 72 h
Plasmodium falciparum [3] = test: Potency index, ratio of betulin EC50 to compound EC50 for antimalarial activity against ring stage Plasmodium falciparum 3D7 infected in type A-positive human erythrocytes; format: functional
Human betaherpesvirus 5 [4] = test: Potency index, ratio of betulinic acid EC50 to compound EC50 for antiviral activity against recombinant HCMV AD169 expressing GFP infected in human foreskin fibroblasts; format: functional, strain AD169
Human betaherpesvirus 5 [5] = test: Potency index, ratio of artesunic acid EC50 to compound EC50 for antiviral activity against recombinant HCMV AD169 expressing GFP infected in human foreskin fibroblasts; format: functional, strain AD169
Plasmodium falciparum [6] = test: Potency index, ratio of betulinic acid EC50 to compound EC50 for antimalarial activity against ring stage Plasmodium falciparum 3D7 infected in type A-positive human erythrocytes; format: functional

| Structure (SMILES) | EC50 (Human betaherpesvirus 5 [1]) | EC50 (Plasmodium falciparum [2]) | Ratio EC50 (Plasmodium falciparum [3]) | Ratio EC50 (Human betaherpesvirus 5 [4]) | Ratio EC50 (Human betaherpesvirus 5 [5]) | Ratio EC50 (Plasmodium falciparum [6]) |
| --- | --- | --- | --- | --- | --- | --- |
| C=C(C)[C@@H]1CC[C@]2(COC(=O)CCC(=O)O[C@@H]3O[C@@H]4O[C@@]5(C)CC[C@H]6[C@H](C)CC[C@@H]([C@H]3C)[C@@]46OO5)CC[C@]3(C)[C@H](CC[C@@H]4[C@@]5(C)CC[C@H](O)C(C)(C)[C@@H]5CC[C@]43C)[C@@H]12 | 880 nM | 255 nM | 20 |  |  |  |
| C=C(C)[C@@H]1CC[C@]2(C(=O)O)CC[C@]3(C)[C@H](CC[C@@H]4[C@@]5(C)CC[C@H](OC(=O)CCC(=O)O[C@@H]6O[C@@H]7O[C@@]8(C)CC[C@H]9[C@H](C)CC[C@@H]([C@H]6C)[C@@]79OO8)C(C)(C)[C@@H]5CC[C@]43C)[C@@H]12 | 240 nM | 85 nM |  | 15 | 23 | 16 |
| C[C@H]1[C@@H](O)O[C@@H]2O[C@@]3(C)CC[C@H]4[C@H](C)CC[C@@H]1[C@@]24OO3 [ARTENIMOL] | > 10000 nM | 2.6 nM |  |  |  |  |
| C=C(C)[C@@H]1CC[C@]2(C(=O)O)CC[C@]3(C)[C@H](CC[C@@H]4[C@@]5(C)CC[C@H](O)C(C)(C)[C@@H]5CC[C@]43C)[C@@H]12 [BETULINIC ACID] | 3620 nM | 1420 nM |  |  |  |  |
| C=C(C)[C@@H]1CC[C@]2(CO)CC[C@]3(C)[C@H](CC[C@@H]4[C@@]5(C)CC[C@H](O)C(C)(C)[C@@H]5CC[C@]43C)[C@@H]12 [BETULIN] | 1990 nM | 3940 nM |  |  |  |  |
| CCN(CC)CCCC(C)Nc1ccnc2cc(Cl)ccc12 (stereo not given) [CHLOROQUINE PHOSPHATE] |  | 8.3 nM |  |  |  |  |
